Patent US20230241064A1, “METHODS OF TREATMENT AND/OR PREVENTION OF MAJOR ADVERSE CARDIOVASCULAR EVENTS (MACE) WITH A COMBINATION OF A BET BROMODOMAIN INHIBITOR AND A DIPEPTIDYL PEPTIDASE 4 INHIBITOR” (Resverlogix Corp., priority 2020, published 2023)

Columns and labels:
[1] = EXAMINE; cited from earlier work
[2] = system: type 2 diabetes patients with low HDL cholesterol and a recent acute coronary syndrome (ACS); assay: BETonMACE post-hoc analysis: cumulative incidence of non-fatal myocardial infarction; format: in vivo, human; conditions: patients without DPP-4 inhibitor; vs placebo (non-treatment); FIG. 8
Method: (§1) Apabetalone (RVX-208) was evaluated in a recently completed clinical Phase 3 trial (BETonMACE; NCT02586155) for the effect on MACE in type 2 diabetes patients with low HDL cholesterol (below 40 mg/dL for males and below 45 mg/dL for females) and a recent acute coronary syndrome (ACS). All patients received high intensity statin treatment, which was 20-40 mg daily or a maximum daily dose of 40 mg for rosuvastatin or 40-80 mg daily or a maximum daily dose of 80 mg for atorvastatin.
(§2) Patients (n=2425) with ACS in the preceding 7 to 90 days, with type 2 diabetes and low HDL cholesterol (≤40 mg/dl for men, ≤45 mg/dl for women), receiving intensive or maximum-tolerated therapy with atorvastatin or rosuvastatin, were assigned in double-blind fashion to receive apabetalone 100 mg orally twice daily or matching placebo. Baseline characteristics include female sex (25%), myocardial infarction as index ACS event (74%), coronary revascularization for index ACS (76%), treatment with dual anti-platelet therapy (87%) and renin-angiotensin system inhibitors (91%), median LDL cholesterol 65 mg per deciliter, and median HbA1c 7.3%. The primary efficacy measure is time to first occurrence of cardiovascular death, non-fatal myocardial infarction, or stroke. Assumptions include a primary event rate of 7% per annum in the placebo group and median follow-up of 1.5 years. […]

[3] = system: type 2 diabetes patients with low HDL cholesterol and a recent acute coronary syndrome (ACS); assay: BETonMACE post-hoc analysis: cumulative incidence of broadly defined MACE; format: in vivo, human; conditions: patients without DPP-4 inhibitor; vs placebo (non-treatment); FIG. 5
[4] = system: type 2 diabetes patients with low HDL cholesterol and a recent acute coronary syndrome (ACS); assay: BETonMACE post-hoc analysis: cumulative incidence of hospitalization for congestive heart failure; format: in vivo, human; conditions: patients without DPP-4 inhibitor, vs placebo (non-treatment)
[5] = system: type 2 diabetes patients with low HDL cholesterol and a recent acute coronary syndrome (ACS); assay: BETonMACE Phase 3 trial post-hoc analysis: cumulative incidence of narrowly defined MACE; format: in vivo, human
Method: Patients (n=2425) with ACS in the preceding 7 to 90 days, with type 2 diabetes and low HDL cholesterol (≤40 mg/dl for men, ≤45 mg/dl for women), receiving intensive or maximum-tolerated therapy with atorvastatin or rosuvastatin, were assigned in double-blind fashion to receive apabetalone 100 mg orally twice daily or matching placebo. Baseline characteristics include female sex (25%), myocardial infarction as index ACS event (74%), coronary revascularization for index ACS (76%), treatment with dual anti-platelet therapy (87%) and renin-angiotensin system inhibitors (91%), median LDL cholesterol 65 mg per deciliter, and median HbA1c 7.3%. The primary efficacy measure is time to first occurrence of cardiovascular death, non-fatal myocardial infarction, or stroke. Assumptions include a primary event rate of 7% per annum in the placebo group and median follow-up of 1.5 years. Patients were followed until at least 250 primary endpoint events had occurred, providing 80% power to detect a 30% reduction in the primary endpoint with apabetalone.
Those patients who received at least one dose of DPP-4 inhibitor treatment after the date of the first incidence of event were censored as non-MACE events and the date of last contact was used as the censoring date.
The distributions of the endpoints within the apabetalone and placebo groups were compared using a two-sided log-rank test (LRT) with an alpha=0.05 level of significance. The cumulative incidence is shown as 1-KM (Kaplan-Meier) estimate for event rate.

[6] = system: type 2 diabetes patients with low HDL cholesterol and a recent acute coronary syndrome (ACS); assay: BETonMACE post-hoc analysis: cumulative incidence of cardiovascular death; format: in vivo, human; conditions: patients without DPP-4 inhibitor; vs placebo (non-treatment); FIG. 11
Method: as §1, §2

[7] = vs placebo; TECOS trial; cited from earlier work

In the case of `Cn1c(=O)cc(N2CCC[C@@H](N)C2)n(Cc2ccccc2C#N)c1=O` [alogliptin], the “effect on the 3-point MACE composite outcome of cardiovascular death, myocardial infarction, or ischemic stroke” value [1] is given as “neutral effect”.
With `COc1cc(OC)c2c(=O)[nH]c(-c3cc(C)c(OCCO)c(C)c3)nc2c1` [apabetalone, 2-(4-(2-hydroxyethoxy)-3,5-dimethylphenyl)-5,7-dimethoxyquinazolin-4(3H)-one] the “Hazard Ratio, non-fatal myocardial infarction” value [2] was 0.99, the “Hazard Ratio, broadly defined MACE” value [3] was 1.00 and the “reduction of number of patients having a hospitalization for congestive heart failure event at any given time” value [4] was 27%. The “Hazard Ratio, hospitalization for congestive heart failure” value ([4]; FIG. 14) was 0.73, the “number of primary end points (narrowly defined MACE: cardiovascular death, non-fatal myocardial infarction, or stroke)” value ([5]; apabetalone 100 mg orally twice daily, on statin, per treatment group) was 114 and the “Kaplan-Meier estimated event rate, narrowly defined MACE” value ([5]; at 18 months) was 8.0%. For the same molecule, the “Hazard Ratio, narrowly defined MACE” value ([5]; patients without DPP-4 inhibitor, vs placebo (non-treatment), FIG. 2) was 0.99, the “primary end points (narrowly defined MACE) as percent of group” value ([5]; per treatment group) was 10.9% and the “Hazard Ratio, cardiovascular death” value [6] was 0.97.
In the case of `N[C@@H](CC(=O)N1CCn2c(nnc2C(F)(F)F)C1)Cc1cc(F)c(F)cc1F` [sitagliptin], the “hazard ratio (HR), 3-point MACE composite outcome” value [7] is given as 0.99 and the “hazard ratio (HR), 4-point MACE composite outcome” value [7] is given as 0.98.
